Measured values published in patent US20210300924A1, “5-[6-[[3-(4,5,6,7-TETRAHYDROPYRAZOLO[4,3-C]PYRIDIN-1-YL)AZETIDIN-1-YL]METHYL]MORPHOLIN-4-YL]QUINOLINE-8-CARBONITRILE DERIVATIVES AND SIMILAR COMPOUNDS AS TLR7-9 ANTAGONISTS FOR TREATING SYSTEMIC LUPUS ERYTHEMATOSUS” (Hoffmann-La Roche Inc., priority 2018, published 2021).

Biological target: T1, human TLR8 (Homo sapiens, UniProt Q9NR97)
T1 construct: host or cells: HEK293 (HEK-Blue hTLR8)
T1 sequence (Q9NR97 27-1041): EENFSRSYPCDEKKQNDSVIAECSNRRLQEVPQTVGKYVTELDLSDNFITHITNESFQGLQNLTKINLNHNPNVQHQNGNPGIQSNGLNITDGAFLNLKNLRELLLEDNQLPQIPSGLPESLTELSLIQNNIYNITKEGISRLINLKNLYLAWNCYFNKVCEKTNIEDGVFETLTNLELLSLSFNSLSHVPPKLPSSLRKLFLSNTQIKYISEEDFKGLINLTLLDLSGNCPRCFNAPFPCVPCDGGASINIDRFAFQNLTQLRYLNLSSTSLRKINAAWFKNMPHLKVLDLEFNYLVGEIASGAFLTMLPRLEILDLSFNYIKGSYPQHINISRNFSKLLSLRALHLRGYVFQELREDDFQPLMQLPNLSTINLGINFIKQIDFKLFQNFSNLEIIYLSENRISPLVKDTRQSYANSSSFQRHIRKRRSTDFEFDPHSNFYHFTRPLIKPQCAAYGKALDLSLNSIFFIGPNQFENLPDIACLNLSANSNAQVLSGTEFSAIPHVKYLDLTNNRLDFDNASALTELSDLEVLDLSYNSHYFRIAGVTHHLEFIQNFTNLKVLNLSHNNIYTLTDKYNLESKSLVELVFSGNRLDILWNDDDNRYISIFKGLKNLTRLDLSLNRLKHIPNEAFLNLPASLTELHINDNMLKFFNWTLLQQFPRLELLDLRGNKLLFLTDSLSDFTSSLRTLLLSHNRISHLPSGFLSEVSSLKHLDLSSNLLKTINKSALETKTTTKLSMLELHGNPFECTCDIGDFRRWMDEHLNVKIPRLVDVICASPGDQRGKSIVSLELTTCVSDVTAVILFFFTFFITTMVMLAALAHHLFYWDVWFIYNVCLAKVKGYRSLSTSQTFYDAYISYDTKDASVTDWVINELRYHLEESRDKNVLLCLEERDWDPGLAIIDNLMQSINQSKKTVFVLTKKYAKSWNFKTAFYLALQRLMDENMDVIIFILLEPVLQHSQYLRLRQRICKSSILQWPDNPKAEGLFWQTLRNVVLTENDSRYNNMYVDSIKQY
Experiment: HEK293-Blue-hTLR-8 cells assay
Format: cell-based
Details: HEK293-Blue-hTLR8 cells, R848 stimulation, 20 hrs, SEAP reporter; read-out: HEK/hTLR8 IC50
From the text: A stable HEK293-Blue-hTLR-8 cell line was purchased from InvivoGen (Cat. #: hkb-htlr8, San Diego, Calif., USA). These cells were originally designed for studying the stimulation of human TLR8 by monitoring the activation of NF-κB. A SEAP (secreted embryonic alkaline phosphatase) reporter gene was placed under the control of the IFN-β minimal promoter fused to five NF-κB and AP-1-binding sites. The SEAP was induced by activating NF-κB and AP-1 via stimulating HEK-Blue hTLR8 cells with TLR8 ligands. Therefore the reporter expression was declined by TLR8 antagonist under the stimulation of a ligand, such as R848, for incubation of 20 hrs. The cell culture supernatant SEAP reporter activity was determined using QUANTI-Blue™ kit (Cat. #: rep-qb1, Invivogen, San Diego, Ca, USA) at a wavelength of 640 nm, a detection medium that turns purple or blue in the presence of alkaline phosphatase.
HEK293-Blue-hTLR8 cells were incubated at a density of 250,000-450,000 cells/mL in a volume of 170 μL in a 96-well plate in Dulbecco's Modified Eagle's medium (DMEM) containing 4.5 g/L glucose, 50 U/mL penicillin, […], […], 2 mM L-glutamine, 10% (v/v) heat-inactivated fetal bovine serum with addition of 20 μL test compound in a serial dilution in the presence of final DMSO at 1% and 10 μL of 60 uM R848 in above DMEM, perform incubation under 37° C. in a CO2 incubator for 20 hrs. Then 20 μL of the supernatant from each well was incubated with […] Quanti-blue substrate solution at 37° C. for 2 hrs and the absorbance was read at 620-655 nm using a spectrophotometer. The signaling pathway that TLR8 activation leads to downstream NF-κB activation has been widely accepted, and therefore similar reporter assay was modified for evaluating TLR8 antagonist.

| SMILES | IC50 [nM] |
| --- | --- |
| C[C@@H]1CN(c2ccc(C#N)c3ncccc23)C[C@H](CN2CC(n3ncc4c3CN[C@@H](C)C4)C2)O1 (single isomer, unassigned) [Example 27] | 8 |
| C[C@@H]1Cc2cnn(C3CN(C[C@H]4CN(c5ccc(C#N)c6ncccc56)C[C@@H](C)O4)C3)c2CN1 (single isomer, unassigned) [Example 28] | 10 |
| C[C@@H]1CN(c2ccc(C#N)c3ncccc23)C[C@H](CN2CC(n3ncc4c3[C@@H](C)NCC4)C2)O1 (single isomer, unassigned) [Example 31] | 5 |
| C[C@@H]1CN(c2ccc(C#N)c3ncccc23)C[C@H](CN2CC(n3cc4c(n3)[C@@H](C)NCC4)C2)O1 (single isomer, unassigned) [Example 33] | 13 |
| C[C@@H]1CN(c2ccc(C#N)c3ncccc23)C[C@H](CN2CC(n3cc4c(n3)[C@H](C)NCC4)C2)O1 (single isomer, unassigned) [Example 34] | 16 |
| C[C@@H]1CN(c2ccc(C#N)c3ncccc23)C[C@H](CN2CC(n3cc4c(n3)CCNC4)C2)O1 [Example 2, 5-[(2R,6S)-2-methyl-6-[[3-(4,5,6,7-tetrahydropyrazolo[4,3-c]pyridin-2-yl)azetidin-1-yl]methyl]morpholin-4-yl]quinoline-8-carbonitrile] | 19 |
| C[C@@H]1CN(c2ccc(C#N)c3ncccc23)C[C@H](CN2CC(n3ncc4c3CNCC4)C2)O1 [Example 3, 5-[(2R,6S)-2-methyl-6-[[3-(4,5,6,7-tetrahydropyrazolo[3,4-c]pyridin-1-yl)azetidin-1-yl]methyl]morpholin-4-yl]quinoline-8-carbonitrile] | 6 |
| C[C@@H]1CN(c2ccc(C#N)c3ncccc23)C[C@H](CN2CC(n3cc4c(n3)CNCC4)C2)O1 [Example 4, 5-[(2R,6S)-2-methyl-6-[[3-(4,5,6,7-tetrahydropyrazolo[3,4-c]pyridin-2-yl)azetidin-1-yl]methyl]morpholin-4-yl]quinoline-8-carbonitrile] | 9 |
| CCN1CCc2cnn(C3CN(C[C@H]4CN(c5ccc(C#N)c6ncccc56)C[C@@H](C)O4)C3)c2C1 [Example 6, 5-[(2S,6R)-2-[[3-(6-ethyl-5,7-dihydro-4H-pyrazolo[3,4-c]pyridin-1-yl)azetidin-1-yl]methyl]-6-methyl-morpholin-4-yl]quinoline-8-carbonitrile] | 5 |
| C[C@@H]1CN(c2ccc(C#N)c3ncccc23)C[C@H](CN2CC(n3cc4c(n3)CNC4)C2)O1 [Example 11, 5-[(2S,6R)-2-[[3-(5,6-dihydro-4H-pyrrolo[3,4-c]pyrazol-2-yl)azetidin-1-yl]methyl]-6-methyl-morpholin-4-yl]quinoline-8-carbonitrile] | 19 |
| Cc1nn(C2CN(C[C@H]3CN(c4ccc(C#N)c5ncccc45)C[C@@H](C)O3)C2)c2c1CNCC2 [Example 12, 5-[(2R,6S)-2-methyl-6-[[3-(3-methyl-4,5,6,7-tetrahydropyrazolo[4,3-c]pyridin-1-yl)azetidin-1-yl]methyl]morpholin-4-yl]quinoline-8-carbonitrile] | 44 |
| Cc1c2c(nn1C1CN(C[C@H]3CN(c4ccc(C#N)c5ncccc45)C[C@@H](C)O3)C1)CCNC2 [Example 13, 5-[(2R,6S)-2-methyl-6-[[3-(3-methyl-4,5,6,7-tetrahydropyrazolo[4,3-c]pyridin-2-yl)azetidin-1-yl]methyl]morpholin-4-yl]quinoline-8-carbonitrile] | 45 |
| Cc1c2c(nn1C1CN(C[C@H]3CN(c4ccc(C#N)c5ncccc45)C[C@@H](C)O3)C1)CCN(C)C2 [Example 15, 5-[(2S,6R)-2-[[3-(3,5-dimethyl-6,7-dihydro-4H-pyrazolo[4,3-c]pyridin-2-yl)azetidin-1-yl]methyl]-6-methyl-morpholin-4-yl]quinoline-8-carbonitrile] | 9 |

Continued by falling IC50, values first:

| IC50 [nM] | SMILES |
| --- | --- |
| 19 | C[C@@H]1CN(c2ccc(C#N)c3ncccc23)C[C@H](CN2CC(n3ncc4c3CNC4)C2)O1 [Example 10, 5-[(2S,6R)-2-[[3-(5,6-dihydro-4H-pyrrolo[3,4-c]pyrazol-1-yl)azetidin-1-yl]methyl]-6-methyl-morpholin-4-yl]quinoline-8-carbonitrile] |
| 17 | C[C@@H]1CN(c2ccc(C#N)c3ncccc23)C[C@H](CN2CC(n3ncc4c3CCNC4)C2)O1 [Example 1, 5-[(2R,6S)-2-methyl-6-[[3-(4,5,6,7-tetrahydropyrazolo[4,3-c]pyridin-1-yl)azetidin-1-yl]methyl]morpholin-4-yl]quinoline-8-carbonitrile] |
| 14 | C[C@@H]1Cc2cn(C3CN(C[C@H]4CN(c5ccc(C#N)c6ncccc56)C[C@@H](C)O4)C3)nc2CN1 (single isomer, unassigned) [Example 30] |
| 12 | C[C@@H]1CN(c2ccc(C#N)c3ncccc23)C[C@H](CN2CC(n3cc4c(n3)[C@@H](C)CNC4)C2)O1 (single isomer, unassigned) [Example 26] |
| 11 | C[C@@H]1CN(c2ccc(C#N)c3ncccc23)C[C@H](CN2CC(n3cc4c(n3)[C@H](C)CNC4)C2)O1 (single isomer, unassigned) [Example 25] |
| 11 | C[C@@H]1CN(c2ccc(C#N)c3ncccc23)C[C@H](CN2CC(n3cc4c(n3)CN[C@@H](C)C4)C2)O1 (single isomer, unassigned) [Example 29] |
| 10 | C[C@@H]1CN(c2ccc(C#N)c3ncccc23)C[C@H](CN2CC(n3ncc4c3[C@H](C)NCC4)C2)O1 (single isomer, unassigned) [Example 32] |
| 10 | Cc1nn(C2CN(C[C@H]3CN(c4ccc(C#N)c5ncccc45)C[C@@H](C)O3)C2)c2c1CN(C)CC2 [Example 14, 5-[(2S,6R)-2-[[3-(3,5-dimethyl-6,7-dihydro-4H-pyrazolo[4,3-c]pyridin-1-yl)azetidin-1-yl]methyl]-6-methyl-morpholin-4-yl]quinoline-8-carbonitrile] |
| 7 | CC(C)N1CCc2cn(C3CN(C[C@H]4CN(c5ccc(C#N)c6ncccc56)C[C@@H](C)O4)C3)nc2C1 [Example 9, 5-[(2S,6R)-2-[[3-(6-isopropyl-5,7-dihydro-4H-pyrazolo[3,4-c]pyridin-2-yl)azetidin-1-yl]methyl]-6-methyl-morpholin-4-yl]quinoline-8-carbonitrile] |
| 6 | C[C@@H]1CN(c2ccc(C#N)c3ncccc23)C[C@H](CN2CC(n3cc4c(n3)CN(C)CC4)C2)O1 [Example 5, 5-[(2R,6S)-2-methyl-6-[[3-(6-methyl-5,7-dihydro-4H-pyrazolo[3,4-c]pyridin-2-yl)azetidin-1-yl]methyl]morpholin-4-yl]quinoline-8-carbonitrile] |
| 5 | CCN1CCc2cn(C3CN(C[C@H]4CN(c5ccc(C#N)c6ncccc56)C[C@@H](C)O4)C3)nc2C1 [Example 7, 5-[(2S,6R)-2-[[3-(6-ethyl-5,7-dihydro-4H-pyrazolo[3,4-c]pyridin-2-yl)azetidin-1-yl]methyl]-6-methyl-morpholin-4-yl]quinoline-8-carbonitrile] |
| 5 | CC(C)N1CCc2cnn(C3CN(C[C@H]4CN(c5ccc(C#N)c6ncccc56)C[C@@H](C)O4)C3)c2C1 [Example 8, 5-[(2S,6R)-2-[[3-(6-isopropyl-5,7-dihydro-4H-pyrazolo[3,4-c]pyridin-1-yl)azetidin-1-yl]methyl]-6-methyl-morpholin-4-yl]quinoline-8-carbonitrile] |
